According to ChEMBL document CHEMBL3301361, “Experimental in vitro DMPK and physicochemical data on a set of publicly disclosed compounds”:

Assay: in vitro
Conditions: human, plasma

Compound | fraction unbound at 5 h (PPB) | fraction unbound at 5 h
CC(=O)NCc1cccc(C(=O)O)c1 | 0.17 | 
C=CC1(C)CC(=O)C2(O)C(C)(O1)C(OC(C)=O)C(O)C1C(C)(C)CCC(O)C12C (configuration not stated) | 0.16 | 
COc1cnc(-c2ccccn2)nc1N(C)C | 0.163 | 
O=C(O)c1ccc2nc(C(F)(F)F)[nH]c2c1 | 0.101 | 
CC(=O)S[C@@H]1CC2=CC(=O)CC[C@]2(C)C2CC[C@@]3(C)C(CC[C@@]34CCC(=O)O4)C21 (some centres not stated) | 0.24 | 
NS(=O)(=O)c1ccc(N2N=C(c3ccc(Br)cc3)CC2c2ccc(F)cc2)cc1 (configuration not stated) | 0.105 | 
NC(=O)c1cccc2c3c([nH]c12)CCCC3 | 0.28 | 
O=C(Cc1cccs1)Nc1ccon1 | 0.563 | 
Cc1ccc(CNC(=O)CCS(=O)(=O)c2ccc(Br)cc2)cc1 |  | 0.013
CN1CCN2c3ccccc3CC3(C(=O)N(C)C(=O)N(C)C3=O)C2C1 (configuration not stated) |  | 0.035
Cc1ccc(Cl)cc1NC(=O)CCS(=O)(=O)c1ccc(Br)s1 |  | 0.0111
O=C(CCS(=O)(=O)c1ccc(Br)cc1)Nc1ccc2c(c1)OCO2 |  | 0.0119
Cc1nccn1-c1ccc(COc2cc(F)cc(C3(C(N)=O)CCOCC3)c2)cc1 | 0.101 | 
COc1cc(/C=C2\SC(=O)NC2=O)ccc1Oc1ccc(C#N)cc1C(F)(F)F |  | 0.0005
Nc1nc(OCC2CCC2)nc2c1ncn2[C@@H]1O[C@H](CF)[C@@H](O)[C@H]1O | 0.228 | 
C[C@H]1O[C@@H](n2cnc3c(N)nc(OCC4CC45CC5)nc32)[C@H](O)[C@@H]1O (some centres not stated) | 0.249 | 
O=C1COc2ccc(CNC3CCN(CCN4C(=O)COc5ccc([N+](=O)[O-])cc54)CC3)nc2N1 |  | 0.249
CC(=O)Nc1cccc2c1c(Oc1ccc(Cl)cc1)c(C)n2CC(=O)O | 0.124 | 
CC(C(=O)OC1CC[N+](C)(C)CC1)(c1ccccc1)N1CCCCC1 (configuration not stated) | 0.78 | 
CN[C@@H](C)C(=O)N[C@H](C(=O)N[C@H]1CCN(CCCc2ccccc2)C1)C1CCCCC1 | 0.36 | 
CN[C@@H](C)C(=O)N[C@H](C(=O)N[C@H]1CCCCN(CCc2ccccc2)C1)C1CCCCC1 | 0.262 | 

Compound | fraction unbound at 5 h (PPB) | fraction unbound at 5 h
COc1cc(OC)c(S(=O)(=O)N2c3ccccc3CCC2C)cc1NC(=S)NCC(=O)O (configuration not stated) | 0.309 | 
COc1cc(OC)c(S(=O)(=O)N2c3ccccc3CCC2C)cc1NC(=O)NCC(=O)O (configuration not stated) | 0.28 | 
COc1cc(OC)c(S(=O)(=O)N2c3ccccc3CCC2C)cc1NC(=O)COCC(=O)O (configuration not stated) | 0.266 | 
COc1cc(OC)c(S(=O)(=O)N2c3ccccc3CCC2C)cc1NC(=O)CCC(=O)O (configuration not stated) | 0.186 | 
COc1cc(OC)c(S(=O)(=O)N2c3ccccc3CCC2C)cc1NC(=O)CSCC(=O)O (configuration not stated) | 0.126 | 
COc1cc(OC)c(S(=O)(=O)NCc2ccccc2N2CCC(CO)CC2)cc1NC(C)=O | 0.126 | 
COc1cc(OC)c(S(=O)(=O)NCc2ccccc2N2CCC(CO)CC2)cc1NC(=O)CCC(=O)O | 0.403 | 
COc1cc(OC)c(S(=O)(=O)NCc2ccccc2N2CCC(COC(=O)CCC(=O)O)CC2)cc1NC(=O)CCC(=O)O | 0.151 | 
COc1cc(OC)c(S(=O)(=O)NCc2ccccc2N2CCC(C(=O)O)CC2)cc1NC(=O)CCC(=O)O | 0.194 | 
O=c1cc(N2CCOCC2)nc2n(Cc3cccc(F)c3)ccn12 | 0.22 | 
NC(=O)[C@H](Cc1ccccc1)NC(=O)OCc1ccccc1 | 0.19 | 
CCNC(=O)c1cc2c(-n3ccc(C(F)(F)F)n3)c(-c3cncc(C(=O)O)c3)cnc2[nH]1 | 0.117 | 
CC(C)NC(=O)c1cc2c(-n3ccc(C(F)(F)F)n3)c(-c3cncc(C(=O)O)c3)cnc2[nH]1 | 0.228 | 
CCNC(=O)c1cc2c(-n3nc(C(F)(F)F)cc3C)c(-c3cncc(C(=O)O)c3)cnc2[nH]1 | 0.454 | 
CCNC(=O)c1cc2c(-n3ccc(C(F)(F)F)n3)c(-c3cncc(C(N)=O)c3)cnc2[nH]1 | 0.36 | 
CCNC(=O)c1cc2c(-n3ccc(C(F)(F)F)n3)c(-c3cncc(C(=O)NC)c3)cnc2[nH]1 | 0.148 | 
CC(=O)Nc1ccc2ccn(-c3cc(NCCN4CCOCC4)n4ncc(C#N)c4n3)c2c1 | 0.112 | 
COc1cnc(-c2ccccn2)nc1N1CCOCC1 | 0.339 | 
N=C(N)c1ccc(CNC(=O)C2(NC(=O)[C@H](NCC(=O)O)C3CCCCC3)Cc3ccccc3C2)cc1 | 0.54 | 
COc1ccc2ncc(=O)n(CCN3CC[C@H](NCc4cc5c(cn4)OCCO5)[C@H](O)C3)c2c1 | 0.194 | 
COc1ccc2ncc(=O)n(CCN3CC[C@@H](NCc4cc5c(cn4)OCCO5)[C@@H](O)C3)c2c1 | 0.142 | 
